Test results as given in paper PMC12287680, “Efficient Acyloxymethylation of Psilocin and Other Tryptamines Yielding ACOM Prodrugs for Psychedelic‐Assisted Therapy” (Archiv Der Pharmazie, 2025).
Structures can show the parent of a compound that is named as a salt. Marks after values point to notes of the source that are not given here.

Legend:
[1] = parameters: method as in earlier work; details: rats, ref 10b, cited from earlier work
[2] = Passive membrane permeability across an artificial membrane; format: in vitro ADME; details: for Papp: PAMPA, pH 7.4, read-out: Passive membrane permeability Pe
From the text: As expected, all tested prodrugs have a high propensity for passive passage across an artificial membrane at pH 7.4 (≥ 8·10^−6 cm/s). […] The loss of the intramolecular hydrogen bond between the phenolic hydroxy group and the tertiary amino group upon O‐substitution appears to decrease the membrane permeability of the prodrugs in comparison to the parent drug. This effect is apparently not entirely compensated by the ACOM promoiety, which in itself is not completely apolar due to the acetal and ester oxygens. The intramolecular hydrogen bond may reduce the polarity of 4‐hydroxytryptamines by introducing a conformational restraint and thereby favoring conformations with a smaller polar surface area and a lower dipole moment and by decreasing hydrogen bonding to the aqueous solvent. In addition, the intramolecular hydrogen bond in 4‐hydroxytryptamines lowers the pK a of the amine and therefore shifts the protonation equilibrium toward the neutral species. The higher proportion of the uncharged species in 4‐hydroxytryptamines compared with their O‐substituted congeners further increases the difference in passive membrane permeability.

[3] = pH 7.4; cited from earlier work
[4] = Half-lives in PBS at 80°C (nonspecific hydrolysis); format: physicochemical; details: for half-life at 50 µM: pH 7.3, PBS, 80°C, 5·10^−5 M, footnote: no replicates; for stability in buffer compared with plasma: buffer at 80°C versus plasma at 37°C, same concentration
Method: As a measure of the drug release rate in the systemic blood circulation, we determined the half‐lives of 15, 16, and 23–26 in pooled human plasma. […] This illustrates that the drug release kinetics in human plasma are highly dependent upon the chosen acyl residue, which allows for tailoring the prodrug's pharmacokinetic profile to the therapeutic requirements. To assess the contribution of nonspecific hydrolysis to the observed kinetics, we incubated the prodrugs at the same concentration in the buffer used to dilute the plasma samples.
(§1) The kinetic studies were carried out by following the loss of substrate under the indicated conditions using HPLC‐UV. Pooled human plasma was obtained commercially (Biowest, France), while human saliva was freshly collected with the written informed consent of the saliva donors. In a typical run, the reaction was initiated by adding the prewarmed medium to a prewarmed aliquot of a 5 mM stock solution of the analyte in DMSO, resulting in a final concentration of 5·10^−5 M. A volume of 100 µL samples of the reaction mixture were taken at suitable intervals, and the reaction was either stopped by cooling to –20°C (PBS) or by protein precipitation using 2:1 (v/v) acetonitrile (saliva, plasma). Precipitates were removed by centrifugation and decantation prior to HPLC analysis. Pseudo‐first‐order rate constants for the observed degradation were determined from the slope of linear plots of ln(peak area) versus time. More detailed descriptions are provided in the Supporting Information.

[5] = Half-lives in pooled human plasma at 37°C; format: in vitro ADME; details: for half-lives t1/2 in human plasma (v/v) at 37°C: 100% plasma, [prodrug]0 =50 µM
Method: As a measure of the drug release rate in the systemic blood circulation, we determined the half‐lives of 15, 16, and 23–26 in pooled human plasma. […] To assess the contribution of nonspecific hydrolysis to the observed kinetics, we incubated the prodrugs at the same concentration in the buffer used to dilute the plasma samples.
as §1
^a The release kinetics of the prodrugs were evaluated in vitro in analogy to the precedent literature.^[1] […] Pooled human blood plasma (Biowest, France) and sterile Dulbecco’s phosphate buffered saline (PBS) pH 7.3 (Sigma-Aldrich, Germany) were used for all experiments. In short, prewarmed (37°C) human plasma and prewarmed (37°C) prodrug (5 mM stock in DMSO) were gently mixed, which afforded a 50 µM solution of the prodrug in human plasma. Incubation was continued at 37°C, and 100 µL samples of the mixture were taken at appropriate time intervals. The samples were immediately quenched with acetonitrile (2:1), centrifuged, decanted, and analyzed via HPLC-UV. Half-lives were determined assuming first-order kinetics; specific values are the mean of triplicates ± standard deviation. For more details, please refer to the SI.

[6] = Half-lives in human saliva at 37°C; format: in vitro ADME; details: fresh resting whole human saliva, mean of three measurements with fresh samples of three individuals, 5·10^−5 M, read-out: Half‐lives t 1/2 at 37°C in human Saliva
Method: Finally, we studied the stability of the compounds in human saliva. […] In line with the literature, the stability of a given compound in human saliva varied considerably between subjects (Figure 7).
as §1

[7] = in DMSO; cited from earlier work
[8] = cited from earlier work
[9] = 100% (undiluted) pooled human plasma, 37°C, 100% pooled human plasma, 5·10^−5 M
[10] = 10% pooled human plasma in PBS, pH 7.3, 37°C, 10% pooled human plasma diluted with PBS, 5·10^−5 M
[11] = diluted pooled human plasma, pH 7.3, even in diluted human plasma, read-out: half‐lives in human plasma

Row | SMILES | Passive membrane permeability R (%) (mass retention) ([2]; pH 7.4) | half-life at 50 µM [4] | half-life at 50 µM [5, 9] | half-lives t1/2 in human plasma (v/v) at 37°C ([5]; 37°C) | drug release in undiluted human plasma during the observation period ([5]; 37°C) | half-life at 50 µM [6] | Papp [2] | also measured
1 | CN(C)CCc1c[nH]c2cccc(OCOC(=O)C(C)(C)C)c12 [Compound 2] | – | – | – | – | – | – | – | detected systemic psilocin level ([1]; peroral dosing): relatively low; prodrug behaviour upon peroral dosing [1]: acts as a psilocin prodrug
2 | CCN(C)CCc1c[nH]c2cccc(O)c12 [Compound 30, reference compound] | 29% | – | – | – | – | – | – | Passive membrane permeability Pe ([2]; pH 7.4): 11 ± 1 10^−6cm/s; mass retention (R%), in words ([2]; pH 7.4): remarkably high; membrane permeability, ranking ([2]; pH 7.4, compared with the prodrugs): highest membrane permeability
3 | CN(C)CCc1c[nH]c2cccc(OP(=O)(O)O)c12 [psilocybin] | – | – | – | – | – | – | – | logD7.4 [3]: −0.89
4 | CCN(C)CCc1cn(C(=O)OCc2ccccc2)c2cccc(O)c12 [Compound 15] | – | 136 ± 4 min | > 5700 min | > 5700 (100%) min | Neither the N‐carbamates 15 and 16 nor the sterically hindered pivaloyloxymethyl ethers 23 and 25 showed significant drug release | – | – | –
5 | CCCC(=O)OCOc1cccc2[nH]cc(CCN(C)CC)c12 [Compound 24] | 6% | 73.3 ± 1.2 min | – | – | – | < 10 min | 8 ± 0.3 ×10⁻⁶ cm/s | stability in buffer compared with plasma [4]: significantly more stable in buffer than in plasma; half-life at 50 µM [5, 10]: 4.2 ± 0.1 min; half-life at 50 µM [5, 11]: < 5 min
6 | CNS(=O)(=O)Cc1ccc2[nH]cc(CCN(C)C)c2c1 [sumatriptan] | – | – | – | – | – | – | – | sulfonamide pKa [7]: ~ 17.5; logD7.4 [3]: −1.3; logP [8]: 0.93
7 | CN(C)CCc1cn(C(=O)OCc2ccccc2)c2cccc(O)c12 [Compound 16, 1‐Benzyloxycarbonyl‐4‐Hydroxy‐N,N‐Dimethyltryptamine] | – | 184 ± 5 min | > 5700 min | > 5700 (100%) min | Neither the N‐carbamates 15 and 16 nor the sterically hindered pivaloyloxymethyl ethers 23 and 25 showed significant drug release | – | – | –
8 | CCCC(=O)OCOc1cccc2[nH]cc(CCN(C)C)c12 [Compound 26, 4‐n‐Butanoyloxymethyloxy‐N,N‐Dimethyltryptammonium Fumarate] | 7 ^e % | 58.6 ± 3.5 min | 0.48 ± 0.1 min | – | – | < 10 min | 8.1 ± 0.8 ×10⁻⁶ cm/s | stability in buffer compared with plasma [4]: significantly more stable in buffer than in plasma; half-life at 50 µM [5, 10]: 3.5 ± 0.8 min; half-life at 50 µM [5, 11]: < 5 min
9 | CCN(C)CCc1c[nH]c2cccc(OCOC(=O)C(C)(C)C)c12 [Compound 23] | 2% | 534 ± 12 min | > 240 min | > 240 (100%) min | Neither the N‐carbamates 15 and 16 nor the sterically hindered pivaloyloxymethyl ethers 23 and 25 showed significant drug release | < 20 min | 9.7 ± 0.6 ×10⁻⁶ cm/s | –
10 | CC(=O)Oc1ccccc1C(=O)O [ASA, Acetylsalicylic acid, reference compound] | – | 27.9 ± 0.3 min | – | – | – | > 60 min | – | –
11 | CN(C)CCc1c[nH]c2cccc(OCOC(=O)C(C)(C)C)c12 [Compound 25] | 4% | 458 ± 23 min | > 240 min | > 240 (100%)^b min | Neither the N‐carbamates 15 and 16 nor the sterically hindered pivaloyloxymethyl ethers 23 and 25 showed significant drug release | < 20 min | 9.1 ± 0.5 ×10⁻⁶ cm/s | chemical and plasma stability, in words ([5]; in vitro): high chemical and plasma stability
